US11596639B2, “Substituted indole Mcl-1 inhibitors” (Vanderbilt University, priority 2016, dated 2023)
Like-named read-outs stand apart in the source and are kept apart here.

Key:
Mcl-1 = Mcl-1 (Homo sapiens (Human), UniProt Q07820); experiment: Fluorescence polarization anisotropy (FPA) competition assay, FITC-Bak or FITC-Bim BH3 peptide; type: binding; conditions: read-out: Ki for Inhibition of Mcl-1 by FPA assay
[1] = test system: H929 human cancer cell lines; experiment: Cellular viability / proliferation (Cell TiterGlo, 72 h); type: cell-based
How it was run: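 H929 cells plated at 1,000/well in 10% FBS medium received a 2-fold serial compound dilution (top 50 μM, DMSO <1%) 24 h later. After 72 h, viability was read by CellTiter-Glo luminescence. IC50 came from a four-parameter fit.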

[2] = Homo sapiens, NCI-H929, 72 h, read-out: GI50 on cellular proliferation of H929 human cancer cell lines, H929 cells, 72 h, Cell TiterGlo, 10% FBS

Mcl-1, sequence (Q07820 172-327): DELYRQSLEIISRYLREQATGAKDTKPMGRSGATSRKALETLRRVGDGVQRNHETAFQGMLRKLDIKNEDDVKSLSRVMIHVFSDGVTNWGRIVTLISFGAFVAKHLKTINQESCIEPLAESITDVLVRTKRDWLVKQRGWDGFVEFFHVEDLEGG

Row | SMILES | Ki (Mcl-1) | GI50 [1, 2] | GI50 ([1]; H929 cells, 72 h, Cell TiterGlo, 10% FBS, read-out: GI50 on cellular proliferation of H929 human cancer cell lines) | GI50 ([1]; read-out: GI50 on cellular proliferation of H929 human cancer cell lines, H929 cells, 72 h, Cell TiterGlo, 10% FBS)
1 | Cc1cc(N2C[C@@H](C)n3c(c(CCCOc4cc(C)c(Cl)c(C)c4)c4ccc(Cl)c(-c5c(C)nc(CN6CCOCC6)nc5C)c43)C2=O)c2c(c1)cc(C(=O)O)n2C [Example 416, (R)-7-(7-Chloro-10-(3-(4-chloro-3,5-dimethylphenoxy)propyl)-6-(4,6-dimethyl-2-(morpholinomethyl)pyrimidin-5-yl)-4-methyl-1-oxo-3,4-dihydropyrazino[1,2-a]indol-2(1H)-yl)-1,5-dimethyl-1H-indole-2-carboxylic acid] | < 1 nM | < 200 nM | – | –
2 | Cc1cc(OCCCc2c3n(c4c(-c5c(C)nc(CN6CCCC6)nc5C)c(Cl)ccc24)CCCN(c2cn(C)c4ccc(C(=O)O)cc24)C3=O)cc(C)c1Cl [Example 373] | 1.6 nM | – | 1200 nM | –
3 | Cc1nc(-c2ccc3c(c2)c(N2C[C@@H](C)n4c(c(CCCOc5cc(C)c(Cl)c(C)c5)c5ccc(Cl)c(-c6c(C)nn(C)c6C)c54)C2=O)cn3C)no1 [Example 429, (R)-7-Chloro-10-(3-(4-chloro-3,5-dimethylphenoxy)propyl)-4-methyl-2-(1-methyl-5-(5-methyl-1,2,4-oxadiazol-3-yl)-1H-indol-3-yl)-6-(1,3,5-trimethyl-1H-pyrazol-4-yl)-3,4-dihydropyrazino[1,2-a]indol-1(2H)-one] | 1.8 nM | 970 nM | – | –
4 | Cc1cc(OCCCc2c3n(c4c(-c5c(C)nn(C)c5C)c(Cl)ccc24)[C@H](C)CN(c2ccc(Cl)c4c(C(=O)O)cn(C)c24)C3=O)cc(C)c1Cl [Example 435, (R)-4-Chloro-7-(7-chloro-10-(3-(4-chloro-3,5-dimethylphenoxy)propyl)-4-methyl-1-oxo-6-(1,3,5-trimethyl-1H-pyrazol-4-yl)-3,4-dihydropyrazino[1,2-a]indol-2(1H)-yl)-1-methyl-1H-indole-3-carboxylic acid] | < 1 nM | 570 nM | – | –
5 | Cc1cc(OCCCc2c3n(c4c(-c5c(C)nn(C)c5C)c(Cl)ccc24)[C@H](C)CN(c2cn(C)c4ccc(C(=O)Nc5ccccn5)cc24)C3=O)cc(C)c1Cl [Example 280, 3-[(4R)-7-chloro-10-[3-(4-chloro-3,5-dimethyl-phenoxy)propyl]-4-methyl-1-oxo-6-(1,3,5-trimethylpyrazol-4-yl)-3,4-dihydropyrazino[1,2-a]indol-2-yl]-1-methyl-N-(2-pyridyl)indole-5-carboxamide] | 1.5 nM | 2200 nM | – | –
6 | CC[C@@H]1Cn2c(c(CCCOc3cc(C)c(Cl)c(C)c3)c3ccc(Cl)c(-c4c(C)nn(C)c4C)c32)C(=O)N1Cc1ccc(C(=O)O)cn1 [Example 20, (R)-6-((7-chloro-10-(3-(4-chloro-3,5-dimethylphenoxy)propyl)-3-ethyl-1-oxo-6-(1,3,5-trimethyl-1H-pyrazol-4-yl)-3,4-dihydropyrazino[1,2-a]indol-2(1H)-yl)methyl)nicotinic acid] | 2.5 nM | 6500 nM | – | –
7 | Cc1cc(OCCCc2c3n(c4c(-c5c(C)nn(C)c5C)c(Cl)ccc24)[C@H](C)CN(c2cccc4cc(C#N)n(C)c24)C3=O)cc(C)c1Cl [Example 300, 7-[(4R)-7-chloro-10-[3-(4-chloro-3,5-dimethyl-phenoxy)propyl]-4-methyl-1-oxo-6-(1,3,5-trimethylpyrazol-4-yl)-3,4-dihydropyrazino[1,2-a]indol-2-yl]-1-methyl-indole-2-carbonitrile] | 2 nM | 5900 nM | – | –
8 | Cc1cc(OCCCc2c3n(c4c(-c5c(C)n[nH]c5C)c(Cl)ccc24)[C@H](C)CN(c2cn(C)c4ccc(C(=O)O)cc24)C3=O)cc(C)c1Cl [Example 129, (R)-3-(7-chloro-10-(3-(4-chloro-3,5-dimethylphenoxy)propyl)-6-(3,5-dimethyl-1H-pyrazol-4-yl)-4-methyl-1-oxo-3,4-dihydropyrazino[1,2-a]indol-2(1H)-yl)-1-methyl-1H-indole-5-carboxylic acid] | < 1 nM | 550 nM | – | –
9 | COCCn1c(C(=O)O)cc2c(N3C[C@@H](C)n4c(c(CCCOc5cc(C)c(Cl)c(C)c5)c5ccc(Cl)c(-c6c(C)nn(C)c6C)c54)C3=O)cccc21 [Example 353, (R)-4-(7-Chloro-10-(3-(4-chloro-3,5-dimethylphenoxy)propyl)-4-methyl-1-oxo-6-(1,3,5-trimethyl-1H-pyrazol-4-yl)-3,4-dihydropyrazino[1,2-a]indol-2(1H)-yl)-1-(2-methoxyethyl)-1H-indole-2-carboxylic acid] | 2.1 nM | 2900 nM | – | –
10 | COc1ccc(N2C[C@@H](C)n3c(c(CCCOc4cc(C)c(Cl)c(C)c4)c4ccc(Cl)c(-c5c(C)nn(C)c5C)c43)C2=O)c2c1cc(C(=O)O)n2C [Example 192, (R)-7-(7-Chloro-10-(3-(4-chloro-3,5-dimethylphenoxy)propyl)-4-methyl-1-oxo-6-(1,3,5-trimethyl-1H-pyrazol-4-yl)-3,4-dihydropyrazino[1,2-a]indol-2(1H)-yl)-4-methoxy-1-methyl-1H-indole-2-carboxylic acid] | < 1 nM | < 200 nM | – | –
11 | Cc1cc(OCCCc2c3n(c4c(-c5c(C)nn(C)c5C)c(Cl)ccc24)[C@H](C)CN(c2cc(C(=O)O)cc4c2ccn4CCN2CCOCC2)C3=O)cc(C)c1Cl [Example 96, (R)-4-(7-chloro-10-(3-(4-chloro-3,5-dimethylphenoxy)propyl)-4-methyl-1-oxo-6-(1,3,5-trimethyl-1H-pyrazol-4-yl)-3,4-dihydropyrazino[1,2-a]indol-2(1H)-yl)-1-(2-morpholinoethyl)-1H-indole-6-carboxylic acid] | 2.9 nM | 4700 nM | – | –
12 | Cc1nn(C)c(C)c1-c1c(Cl)ccc2c(CCCOc3ccc(F)cc3)c3n(c12)[C@H](C)CN(c1cn(C)c2ccc(C(=O)O)cc12)C3=O [Example 410, (R)-3-(7-Chloro-10-(3-(4-fluorophenoxy)propyl)-4-methyl-1-oxo-6-(1,3,5-trimethyl-1H-pyrazol-4-yl)-3,4-dihydropyrazino[1,2-a]indol-2(1H)-yl)-1-methyl-1H-indole-5-carboxylic acid] | 1.4 nM | 4000 nM | – | –
13 | Cc1cc(OCCCc2c3n(c4c(-c5c(C)nn(C)c5C)c(Cl)ccc24)[C@H](C)CN(c2cn(CCN4CCOCC4)c4cc(C(=O)O)ccc24)C3=O)cc(C)c1Cl [Example 293, (R)-3-(7-chloro-10-(3-(4-chloro-3,5-dimethylphenoxy)propyl)-4-methyl-1-oxo-6-(1,3,5-trimethyl-1H-pyrazol-4-yl)-3,4-dihydropyrazino[1,2-a]indol-2(1H)-yl)-1-(2-morpholinoethyl)-1H-indole-6-carboxylic acid] | < 1 nM | – | – | 810 nM
14 | Cc1cc(OCCCc2c3n(c4c(-c5c(C)nn(C)c5C)c(Cl)ccc24)CCCN(c2cc(C(=O)O)c4cnn(CCN(C)C)c4c2)C3=O)cc(C)c1Cl [Example 30, 6-[8-Chloro-11-[3-(4-chloro-3,5-dimethyl-phenoxy)propyl]-1-oxo-7-(1,3,5-trimethylpyrazol-4-yl)-4,5-dihydro-3H-[1,4]diazepino[1,2-a]indol-2-yl]-1-[2-(dimethylamino)ethyl]indazole-4-carboxylic acid] | 1.2 nM | 5400 nM | – | –
15 | Cc1cc(OCCCc2c3n(c4c(-c5c(C)nn(C)c5C)c(Cl)ccc24)[C@H](C)CN(c2cc(C(=O)O)nc4c2ccn4C)C3=O)cc(C)c1Cl [Example 167, (R)-4-(7-chloro-10-(3-(4-chloro-3,5-dimethylphenoxy)propyl)-4-methyl-1-oxo-6-(1,3,5-trimethyl-1H-pyrazol-4-yl)-3,4-dihydropyrazino[1,2-a]indol-2(1H)-yl)-1-methyl-1H-pyrrolo[2,3-b]pyridine-6-carboxylic acid] | < 1 nM | 4100 nM | – | –
16 | Cc1cc(OCCCc2c3n(c4c(-c5c(C)nn(C)c5C)c(Cl)ccc24)[C@H](C)CN(c2cccc4cc(C(=O)O)n(CC5(C)COC5)c24)C3=O)cc(C)c1Cl [Example 380, (R)-7-(7-chloro-10-(3-(4-chloro-3,5-dimethylphenoxy)propyl)-4-methyl-1-oxo-6-(1,3,5-trimethyl-1H-pyrazol-4-yl)-3,4-dihydropyrazino[1,2-a]indol-2(1H)-yl)-1-((3-methyloxetan-3-yl)methyl)-1H-indole-2-carboxylic acid] | 7.9 nM | 2500 nM | – | –
17 | Cc1cc(OCCCc2c3n(c4c(-c5c(C)nn(C)c5C)c(Cl)ccc24)[C@H](C)CN(c2cccc4cc(C(=O)O)n(CC5COC5)c24)C3=O)cc(C)c1Cl [Example 383, (R)-7-(7-Chloro-10-(3-(4-chloro-3,5-dimethylphenoxy)propyl)-4-methyl-1-oxo-6-(1,3,5-trimethyl-1H-pyrazol-4-yl)-3,4-dihydropyrazino[1,2-a]indol-2(1H)-yl)-1-(oxetan-3-ylmethyl)-1H-indole-2-carboxylic acid] | 2.6 nM | 1500 nM | – | –
18 | Cc1cc(OCCCc2c3n(c4c(-c5c(C)nn(C)c5C)c(Cl)ccc24)[C@H](C)CN(c2nn(C)c4ccc(C(=O)O)cc24)C3=O)cc(C)c1Cl [Example 163, (R)-3-(7-Chloro-10-(3-(4-chloro-3,5-dimethylphenoxy)propyl)-4-methyl-1-oxo-6-(1,3,5-trimethyl-1H-pyrazol-4-yl)-3,4-dihydropyrazino[1,2-a]indol-2(1H)-yl)-1-methyl-1H-indazole-5-carboxylic acid] | < 1 nM | 260 nM | – | –
19 | Cc1cc(OCCCc2c3n(c4c(-c5c(C)nn(C)c5C)c(Cl)ccc24)[C@H](C)CN(c2cccc4c(C(=O)O)cn(Cc5ccncc5)c24)C3=O)cc(C)c1Cl [Example 472, (R)-7-(7-Chloro-10-(3-(4-chloro-3,5-dimethylphenoxy)propyl)-4-methyl-1-oxo-6-(1,3,5-trimethyl-1H-pyrazol-4-yl)-3,4-dihydropyrazino[1,2-a]indol-2(1H)-yl)-1-(pyridin-4-ylmethyl)-1H-indole-3-carboxylic acid] | 1.2 nM | 1700 nM | – | –
